Patent US20120115817A1, “PHTHALIMIDE DERIVATIVES OF NON-STEROIDAL ANTI-INFLAMMATORY COMPOUNDS AND/OR TNF-ALPHA MODULATORS, METHOD FOR PRODUCING SAME, PHARMACEUTICAL COMPOSITIONS CONTAINING SAME AND USES THEREOF FOR THE TREATMENT OF INFLAMMATORY DISEASES” (EMS S.A., priority 2009, published 2012)
“Also recorded” adds a separate entry of the source.

How the values were obtained:
gastric mucosa = assay: Gastric lesion test (gastric ulcerogenesis); format: in vivo, rat; parameters: key to grade of gastric lesion (ulceration): ground zero for the ulceration of compounds that do not damage the gastric lining; lesions <1 mm=grade 1; 1.5 to 2.5 mm grade 2; 2.5 to 3.5 mm=grade 3; 3.5 to 4.5 mm, and grade 4; >4.5 mm=grade 5; conditions: for change in color or morphology of the gastric mucosa / lesion on the gastric lining / gastric ulceration / grade of gastric lesion (ulceration): single dose of 100 μmol/kg; for grade of gastric lesion (ulceration): scale zero to 5
From the text: We performed the evaluation of gastric lesions caused by new anti-inflammatory derived from phthalimide of the invention and compared with standard anti-inflammatory drugs (without molecular modification). The compounds were classified according to the grade of damage caused on a scale ranging from 1-5. It was assumed that: lesions <1 mm=grade 1, 1.5 to 2.5 mm grade 2, 2.5 to 3.5 mm=grade 3, 3.5 to 4.5 mm, and grade 4=>4.5 mm=grade 5. The results obtained were reported as averages±E. P. M. All results were submitted to the variance homogeneity test (Levene's Test) to confirm homogeneity. The results with not significant p (above 0.05), were subsequently subjected to Variance Analysis (ANOVA) followed by multiple comparison test (post hoc analyses) such as the Newman-Keul's test, and only the values of p were considered when they were equal or below 0.05.
The stomachs were also evaluated on the number of lesions observed.
In order to characterize the profile of gastric lesion caused by the new anti-inflammatory derivatives of the invention the extent of the lesions caused by the administration of said anti-inflammatory agents was measured.
The gastric ulcerogenesis was verified in the same animals from the groups used for the paw's edema model.
After six hours of readings of the legs, the animals were euthanized in CO2 and had their stomachs removed, opened towards greater curvature and washed with saline.
Through the exposure of the mucosa its color and integrity were shown. In the case of the existence of lesions, these were counted and measured according to the rate of gastric ulcerogenesis (IUG), which abides by numerical criteria for the classification of gastric mucosal lesions: (lesions <1 mm=1; 1.5 to 2.5 mm=2; 2.5 to 3.5 mm=3, 3.5 to 4.5 mm=4 and >4.5 mm=5). The results obtained were reported as averages±E. P. M.

[1] = system: rat paw edema induced by carrageenan; assay: Rat paw edema induced by carrageenan; format: in vivo, Wistar rat; conditions: orally; for anti-inflammatory activity compared with carrageenan-only control / anti-inflammatory activity compared with the standard NSAID: single dose of 100 μmol/kg
Procedure: The anti-inflammatory activity of new phthalmidic derivatives claimed in this patent was evaluated through the model of paw edema induced by carrageenin.
The methodology to be reported can be found in detail in Bandarage, U. K.; Chen, L.; Fang, X.; Garvey, U. S.; Glavin, A.; Janero, D. R.; Letts, L. G.; Mercer, G. J.; Saha, J. K.; Schroeder, J. D.; Shumway, M. J.; Tam, S. W. Nitrosothiol Esters of Diclofenac: Synthesis and Pharmacological Characterization of the Gastrointestinal-Sparing Prodrugs. J. Med. Chem. v. 43, p. 4005-4016, 2000.
The injection of carrageenan in Wistar rat paw causes edema and local inflammation which can be seen by the increased thickness of the rat paw. Pre-treatment with compounds that have anti-inflammatory activity decreases the edema and inflammation caused by carrageenan administration.
The compounds of this invention have been administrated one (1) hour before inoculation of the irritating agent, carrageenan in the paws of the animals with the aid of a gavage tube orally, using water as a solvent.
The monitoring of the inflammation and the anti-inflammatory activity of the compounds of the invention was made by measuring the thickness in millimeters, of the rat's paw.
The control group received sub plantar injection, in the hind paws, the irritating chemical agent, carrageenan, and saline solution, orally.
The hind paws were measured before treatment and hourly for 6 hours after administration of carrageenan, through the thickness to determine their volumes (in mm). The results were expressed as the difference between the readings of the paws before and after treatments.

[2] = system: abdominal contortions induced by acetic acid; conditions: reports in the literature; cited from earlier work
[3] = system: abdominal contortions induced by acetic acid; assay: Abdominal contortion test induced by acetic acid; format: in vivo, Swiss mice; conditions: mice, oral; for inhibitory activity of abdominal contortion: 100 μmol/kg (FIG. 8); for Average (abdominal contortions): acetic acid 0.1 N; for % of inhibition of abdominal contortions: acetic acid 0.1 N (Table 2)
Procedure: Additionally, we conducted the evaluation of possible adverse reactions of the compounds of the invention through the abdominal contortion test induced by acetic acid. […] The results are represented in FIG. 8.
The antinociceptive profile was evaluated by testing abdominal contortions induced by acetic acid in mice. In this assay, there were used Swiss mice of both sexes weighing between 21 and 28 g, fasted for a period of approximately 8 hours. The test-substance was administered orally and had as the gum Arabic at 5% as vehicle. One hour later, it was administered acetic acid at 0.1 N (0.1 mL/10 g weight) in the peritoneal cavity of the animals. Ten minutes after injection of acetic acid, the contortions were counted for 20 minutes.

Structure (SMILES): Cc1ccc(Nc2c(F)cccc2Cl)c(CC(=O)NN2C(=O)c3ccccc3C2=O)c1 [Example 6.3, 2-{2-[(2-chloro-6-fluorophenyl)amine]-5-methylphenyl}-N-(1,3-dioxy-1,3-dihydro-2H-isoindol-2-1)acetamide]
- change in color or morphology of the gastric mucosa (gastric mucosa; rat): did not observe any—macro- and microscopically—morphological change or in the color of the stomach tissue
- lesion on the gastric lining / gastric ulceration (gastric mucosa; rat): no lesion on the gastric lining
- grade of gastric lesion (ulceration) (gastric mucosa; rat): zero
- anti-inflammatory activity compared with carrageenan-only control [1]: significant anti-inflammatory activity

Structure (SMILES): CC(C)Cc1ccc(C(C)C(=O)NN2C(=O)c3ccccc3C2=O)cc1 (stereo not shown) [Example 2.3, N-(1,3-dioxy-1,3-dihydro-2H-isoindol-2-yl)-2-(4-isobutylphenyl)propanamide]
- change in color or morphology of the gastric mucosa (gastric mucosa; rat): a little change in color of the mucosa
- lesion on the gastric lining / gastric ulceration (gastric mucosa; rat): no lesion on the gastric lining
- grade of gastric lesion (ulceration) (gastric mucosa; rat): zero
- anti-inflammatory activity compared with carrageenan-only control [1]: significant anti-inflammatory activity
- anti-inflammatory activity compared with the standard NSAID [1]: superior activity compared with ibuprofen

Structure (SMILES): O=C(O)Cc1ccccc1Nc1c(Cl)cccc1Cl [diclofenac, reference compound]
- analgesic activity in this model according to the literature [2]: do not have analgesic activity
- grade of gastric lesion (ulceration) (gastric mucosa; rat): 5 (>4.5 mm=grade 5)

Structure (SMILES): CC(C)Cc1ccc(C(C)C(=O)O)cc1 (stereo not shown) [ibuprofen, reference compound]
- grade of gastric lesion (ulceration) (gastric mucosa; rat): 5 (>4.5 mm=grade 5)

Structure (SMILES): COc1ccc2cc(C(C)C(=O)NN3C(=O)c4ccccc4C3=O)ccc2c1 (stereo not shown) [Example 3.3, N-(1,3-dioxy-1,3-dihydro-2H-isoindol-2-yl)-2-(6-methoxy-2-naphtyl)propanamide]
- change in color or morphology of the gastric mucosa (gastric mucosa; rat): did not observe any—macro- and microscopically—morphological change or in the color of the stomach tissue
- lesion on the gastric lining / gastric ulceration (gastric mucosa; rat): no lesion on the gastric lining
- grade of gastric lesion (ulceration) (gastric mucosa; rat): zero
- inhibitory activity of abdominal contortion [3]: around 42.5%
- Average (abdominal contortions) ([3]; 100 μmol/kg): 37.8
- % of inhibition of abdominal contortions ([3]; 100 μmol/kg): 42.5%
- anti-inflammatory activity compared with carrageenan-only control [1]: significant anti-inflammatory activity
- anti-inflammatory activity compared with the standard NSAID [1]: superior activity compared with ibuprofen; also recorded: much greater than naproxen

Structure (SMILES): Cc1ccc(Nc2c(F)cccc2Cl)c(CC(=O)O)c1 [lumiracoxib, reference compound]
- grade of gastric lesion (ulceration) (gastric mucosa; rat): 2 (1.5 to 2.5 mm grade 2)

Structure (SMILES): O=C(O)c1ccccc1O [salicylic acid, reference compound]
- grade of gastric lesion (ulceration) (gastric mucosa; rat): 5 (>4.5 mm=grade 5)

Structure (SMILES): CC(C(=O)NN1C(=O)c2ccccc2C1=O)c1cccc(C(=O)c2ccccc2)c1 (stereo not shown) [Example 4.3, 2-(3-benzoylphenyl)-N-(1,3-dioxy-1,3-dihydro-2H-isoindol-2-yl)propanamide]
- inhibitory activity of abdominal contortion [3]: ~37.9%
- Average (abdominal contortions) ([3]; 100 μmol/kg): 40.8
- % of inhibition of abdominal contortions ([3]; 100 μmol/kg): 37.9%

Structure (SMILES): O=C(NN1C(=O)c2ccccc2C1=O)c1ccccc1O [Example 1.3, N-(1,3-dioxy-1,3-dihydro-2H-isoindol-2-yl)-2-hydroxybenzamide]
- total area of lesions (gastric mucosa; observed in six stomachs, 100 μmol/kg): 2.9 mm^2
- size of microlesions on the stomach lining (gastric mucosa; rat, 100 μmol/kg): less than 1 mm
- grade of gastric lesion (ulceration) (gastric mucosa; rat): 1 (lesions <1 mm=grade 1)
- analgesic activity ([3]; 100 μmol/kg): showed no analgesic activity
- inhibitory activity of abdominal contortion [3]: around 17.2%
- Average (abdominal contortions) ([3]; 100 μmol/kg): 54.5
- % of inhibition of abdominal contortions ([3]; 100 μmol/kg): 17.2%
- anti-inflammatory activity compared with carrageenan-only control [1]: significant anti-inflammatory activity

Structure (SMILES): COc1ccc2cc([C@H](C)C(=O)O)ccc2c1 [naproxen, reference compound]
- grade of gastric lesion (ulceration) (gastric mucosa; rat): 5 (>4.5 mm=grade 5)
- inhibitory activity of abdominal contortion [3]: about 43%

Structure (SMILES): O=C(Cc1ccccc1Nc1c(Cl)cccc1Cl)NN1C(=O)c2ccccc2C1=O [Example 5.3, 2-{2-[(2,6-dichlorophenyl)amino]phenyl}-N-(1,3-dioxy-1,3-dihydro-2H-isoindol-2-yl)acetamide]
- change in color or morphology of the gastric mucosa (gastric mucosa; rat): a little change in the color of the mucosa
- lesion on the gastric lining / gastric ulceration (gastric mucosa; rat): no lesion on the gastric lining
- grade of gastric lesion (ulceration) (gastric mucosa; rat): zero
- inhibitory activity of abdominal contortion [3]: ~16.2%
- Average (abdominal contortions) ([3]; 100 μmol/kg): 55.1
- % of inhibition of abdominal contortions ([3]; 100 μmol/kg): 16.2%
- anti-inflammatory activity compared with diclofenac at 120 minutes ([1]; 100 μmol/kg, time of 120 minutes): significantly higher anti-inflammatory activity than that of diclofenac
- anti-inflammatory activity compared with diclofenac at 240 and 360 minutes ([1]; 100 μmol/kg, times 240 and 360 minutes): same activity profile is kept
- anti-inflammatory activity compared with carrageenan-only control [1]: significant anti-inflammatory activity
- anti-inflammatory activity compared with the standard NSAID [1]: significant anti-inflammatory activity when compared to positive control (carrageenan), and to diclofenac

Structure (SMILES): Cc1ccc(-c2cc(C(F)(F)F)nn2-c2ccc(S(N)(=O)=O)cc2)cc1 [celecoxib, reference compound]
- grade of gastric lesion (ulceration) (gastric mucosa; rat): 2 (1.5 to 2.5 mm grade 2)
